From patent US20250206732A1, “COMPOUNDS AND METHODS FOR THE TARGETED DEGRADATION OF KRAS” (Arvinas Operations, Inc., priority 2022, published 2025)

Biological target: T1, AsPC-1 HiBiT-KRASG12D (Homo sapiens, UniProt P01116, G12D)
T1 construct: insert the HiBiT tag onto the N-terminus of one or more of the endogenous KRAS alleles; endogenous in cells; host or cells: AsPC-1 (ATCC CRL-1682), CRISPR-Cas9 knock-in clone, one tagged allele
Assay: HiBiT degradation assay (G12D), AsPC-1 HiBiT-KRASG12D cells
Type: cell-based
Settings: 24 hours treatment; for Dmax: ASPC1, AsPC-1 HiBiT-KRASG12D cells, maximum degradation observed; for DC50: AsPC-1 HiBiT-KRASG12D cells, HiBiT luminescence
Outline: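 Endogenous KRASG12D levels were measured via an N-terminal HiBiT tag knocked into AsPC-1 cells. Cells received compound titrations for 24 hours, and HiBiT luminescence was detected after a 45-minute lytic reagent incubation at room temperature.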

T1 sequence (P01116 1-188 isoform P01116-2 G12D): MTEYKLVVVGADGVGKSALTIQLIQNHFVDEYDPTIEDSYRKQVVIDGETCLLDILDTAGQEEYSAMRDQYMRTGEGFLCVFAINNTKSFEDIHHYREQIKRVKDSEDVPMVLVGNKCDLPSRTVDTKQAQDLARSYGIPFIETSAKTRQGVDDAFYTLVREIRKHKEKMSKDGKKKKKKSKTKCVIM

SMILES | Dmax [%] | DC50 [nM]
CCc1cccc2cc(O)cc(-c3ncc4c(N5CC6CCC(C5)N6)nc(OC[C@H]5CC[C@@]6(COC(=O)N7CCN(c8cc([C@H](C(=O)N9C[C@H](O)C[C@H]9C(=O)N[C@@H](C)c9ccc(-c%10scnc%10C)cc9)C(C)C)on8)CC7)CCCN56)nc4c3F)c12 [Compound 343, [(3R,8R)-3-[[4-(3,8-diazabicyclo[3.2.1]octan-3-yl)-7-(8-ethyl-3-hydroxy-1-naphthyl)-8-fluoro-pyrido[4,3-d]pyrimidin-2-yl]oxymethyl]-1,2,3,5,6,7-hexahydropyrrolizin-8-yl]methyl 4-[5-[(1R)-1-[(2S,4R)-4-hydroxy-2-[[(1S)-1-[4-(4-methylthiazol-5-yl)phenyl]ethyl]carbamoyl]pyrrolidine-1-carbonyl]-2-methyl-propyl]isoxazol-3-yl]piperazine-1-carboxylate] | 80 to 100 | < 600
CCc1cccc2cccc(-c3ncc4c(N5CCCCCC5)nc(OC[C@@]56CCCN5[C@@H](COC(=O)N5CCN(c7cc([C@H](C(=O)N8C[C@H](O)C[C@H]8C(=O)N[C@@H](C)c8ccc(-c9scnc9C)cc8)C(C)C)on7)CC5)CC6)nc4c3F)c12 (relative stereo) [Compound 49] | – | > 3000
CCc1cccc2cc(O)cc(-c3ncc4c(N5CC6CCC(C5)N6)nc(OC[C@]56CCCN5[C@H](COC(=O)N5C[C@@H](C)N(c7cc([C@@H](C(=O)N8C[C@H](O)C[C@H]8C(=O)N[C@@H](C)c8ccc(-c9scnc9C)cc8)C(C)C)on7)C[C@@H]5C)CC6)nc4c3F)c12 [Compound 297, [(3S,8R)-8-[[4-(3,8-diazabicyclo[3.2.1]octan-3-yl)-7-(8-ethyl-3-hydroxy-1-naphthyl)-8-fluoro-pyrido[4,3-d]pyrimidin-2-yl]oxymethyl]-1,2,3,5,6,7-hexahydropyrrolizin-3-yl]methyl (2S,5R)-4-[5-[(1S)-1-[(2S,4R)-4-hydroxy-2-[[(1S)-1-[4-(4-methylthiazol-5-yl)phenyl]ethyl]carbamoyl]pyrrolidine-1-carbonyl]-2-methyl-propyl]isoxazol-3-yl]-2,5-dimethyl-piperazine-1-carboxylate] | < 20 | < 600
CCc1cccc2cc(O)cc(-c3ncc4c(N5CC6CCC(C5)N6)nc(OC[C@@]56CCCN5[C@H](COC(=O)NCc5cc([C@@H](C(=O)N7C[C@H](O)C[C@H]7C(=O)N[C@@H](C)c7ccc(-c8scnc8C)cc7)C(C)C)on5)CC6)nc4c3F)c12 [Compound 100, [(3S,7aS)-7a-{[(4-{3,8-diazabicyclo[3.2.1]octan-3-yl}-7-(8-ethyl-3-hydroxynaphthalen-1-yl)-8-fluoropyrido[4,3-d]pyrimidin-2-yl)oxy]methyl}-hexahydro-1H-pyrrolizin-3-yl]methyl N-({5-[(2S)-1-[(2S,4R)-4-hydroxy-2-{[(1S)-1-[4-(4-methyl-1,3-thiazol-5-yl)phenyl]ethyl]carbamoyl}pyrrolidin-1-yl]-3-methyl-1-oxobutan-2-yl]-1,2-oxazol-3-yl}methyl) carbamate] | 20 to 60 | 1000 to 3000
CCc1cccc2cc(O)cc(-c3ncc4c(N5CC6CCC(C5)N6)nc(OC[C@@]56CCCN5[C@H](CN5CCC(COc7cc([C@@H](C(=O)N8C[C@H](O)C[C@H]8C(=O)N[C@@H](C)c8ccc(-c9scnc9C)cc8)C(C)C)on7)CC5)CC6)nc4c3F)c12 [Compound 97, (2S,4R)-1-[(2S)-2-{3-[(1-{[(3S,7aS)-7a-{[(4-{3,8-diazabicyclo[3.2.1]octan-3-yl}-7-(8-ethyl-3-hydroxynaphthalen-1-yl)-8-fluoropyrido[4,3-d]pyrimidin-2-yl)oxy]methyl}-hexahydro-1H-pyrrolizin-3-yl]methyl}piperidin-4-yl)methoxy]-1,2-oxazol-5-yl}-3-methylbutanoyl]-4-hydroxy-N-[(1S)-1-[4-(4-methyl-1,3-thiazol-5-yl)phenyl]ethyl]pyrrolidine-2-carboxamide] | 20 to 60 | 600 to 1000
CCc1cccc2cc(O)cc(-c3ncc4c(N5CCCCCC5)nc(OC[C@]56CCCN5[C@H](COc5cc([C@H](C(=O)N7C[C@H](O)C[C@H]7C(=O)N[C@@H](C)c7ccc(-c8scnc8C)cc7)C(C)C)on5)CC6)nc4c3F)c12 [Compound 208, (2S,4R)-1-[(2R)-2-(3-{[(3S,7aR)-7a-({[4-(azepan-1-yl)-7-(8-ethyl-3-hydroxynaphthalen-1-yl)-8-fluoropyrido[4,3-d]pyrimidin-2-yl]oxy}methyl)-hexahydro-1H-pyrrolizin-3-yl]methoxy}-1,2-oxazol-5-yl)-3-methylbutanoyl]-4-hydroxy-N-[(1S)-1-[4-(4-methyl-1,3-thiazol-5-yl)phenyl]ethyl]pyrrolidine-2-carboxamide] | 80 to 100 | < 600
CCc1cccc2cc(O)cc(-c3ncc4c(N5CC6CCC(C5)N6)nc(OC[C@]56CCCN5[C@@H](COc5cc([C@@H](C(=O)N7C[C@H](O)C[C@H]7C(=O)N[C@@H](C)c7ccc(-c8scnc8C)cc7)C(C)C)on5)CC6)nc4c3F)c12 [Compound 28, (2S,4R)-1-[(2S)-2-(3-{[(3R,7aR)-7a-{[(4-{3,8-diazabicyclo[3.2.1]octan-3-yl}-7-(8-ethyl-3-hydroxynaphthalen-1-yl)-8-fluoropyrido[4,3-d]pyrimidin-2-yl)oxy]methyl}-hexahydro-1H-pyrrolizin-3-yl]methoxy}-1,2-oxazol-5-yl)-3-methylbutanoyl]-4-hydroxy-N-[(1S)-1-[4-(4-methyl-1,3-thiazol-5-yl)phenyl]ethyl]pyrrolidine-2-carboxamide] | – | > 3000
CCc1cccc2cccc(-c3ncc4c(N5CC6CCC(C5)N6)nc(OC[C@]56CCCN5[C@H](COC(=O)N5CC(Oc7cc([C@H](C(=O)N8C[C@H](O)C[C@H]8C(=O)N[C@@H](C)c8ccc(-c9scnc9C)cc8)C(C)C)on7)C5)CC6)nc4c3F)c12 [Compound 225] | 80 to 100 | < 600
C#Cc1c(F)ccc2cc(O)cc(-c3ncc4c(N5CC6CCC(C5)N6)nc(OC[C@]56CCCN5[C@H](COC(=O)N5CC(Oc7cc([C@H](C(=O)N8C[C@H](O)C[C@H]8C(=O)N[C@@H](C)c8ccc(-c9scnc9C)cc8)C(C)C)on7)C5)CC6)nc4c3F)c12 [Compound 292] | 80 to 100 | < 600
CCc1cccc2cc(O)cc(-c3ncc4c(N5CC6CCC(C5)N6)nc(OC[C@@]56CCCN5[C@H](COC(=O)N5CCN(c7cc([C@H](C(=O)N8C[C@H](O)C[C@H]8C(=O)N[C@@H](C)c8ccc(-c9scnc9C)cc8)C(C)C)on7)CC5)CC6)nc4c3F)c12 (relative stereo) [Compound 107, [(3R*,7aR**)-7a-{[(4-{3,8-diazabicyclo[3.2.1]octan-3-yl}-7-(8-ethyl-3-hydroxynaphthalen-1-yl)-8-fluoropyrido[4,3-d]pyrimidin-2-yl)oxy]methyl}-hexahydro-1H-pyrrolizin-3-yl]methyl 4-{5-[(2R***)-1-[(2S,4R)-4-hydroxy-2-{[(1S)-1-[4-(4-methyl-1,3-thiazol-5-yl)phenyl]ethyl]carbamoyl}pyrrolidin-1-yl]-3-methyl-1-oxobutan-2-yl]-1,2-oxazol-3-yl}piperazine-1-carboxylate] | 80 to 100 | < 600
CCc1cccc2cc(O)cc(-c3ncc4c(N5CC6CCC(C5)N6)nc(OCCN5CCC(COc6cc([C@H](C(=O)N7C[C@H](O)C[C@H]7C(=O)N[C@@H](C)c7ccc(-c8ccnn8C)cc7)C(C)C)on6)CC5)nc4c3F)c12 (relative stereo) [Compound 143, (2S,4R)-1-[(2R*)-2-{3-[(1-{2-[(4-{3,8-diazabicyclo[3.2.1]octan-3-yl}-7-(8-ethyl-3-hydroxynaphthalen-1-yl)-8-fluoropyrido[4,3-d]pyrimidin-2-yl)oxy]ethyl}piperidin-4-yl)methoxy]-1,2-oxazol-5-yl}-3-methylbutanoyl]-4-hydroxy-N-[(1S)-1-[4-(1-methyl-1H-pyrazol-5-yl)phenyl]ethyl]pyrrolidine-2-carboxamide] | 80 to 100 | < 600
CCc1cccc2cc(O)cc(-c3ncc4c(N5CCCCCC5)nc(OC[C@]56CCCN5[C@H](COC(=O)N5CCN(c7cc([C@H](C(=O)N8C[C@H](O)C[C@H]8C(=O)N[C@@H](C)c8ccc(-c9scnc9C)cc8)C(C)C)on7)[C@H](C)C5)CC6)nc4c3F)c12 [Compound 227, [(3S,8R)-8-[[4-(azepan-1-yl)-7-(8-ethyl-3-hydroxy-1-naphthyl)-8-fluoro-pyrido[4,3-d]pyrimidin-2-yl]oxymethyl]-1,2,3,5,6,7-hexahydropyrrolizin-3-yl]methyl (3R)-4-[5-[(1R)-1-[(2S,4R)-4-hydroxy-2-[[(1S)-1-[4-(4-methylthiazol-5-yl)phenyl]ethyl]carbamoyl]pyrrolidine-1-carbonyl]-2-methyl-propyl]isoxazol-3-yl]-3-methyl-piperazine-1-carboxylate] | 80 to 100 | < 600
CCc1cccc2cc(O)cc(-c3ncc4c(N5CC6CCC(C5)N6)nc(OCCN5CCC(CC6CCN(CC(=O)N[C@H](C(=O)N7C[C@H](O)C[C@H]7C(=O)N[C@@H](C)c7ccc(-c8scnc8C)cc7)C(C)(C)C)CC6)CC5)nc4c3F)c12 [Compound 274, (2S,4R)-1-[(2S)-2-(2-{4-[(1-{2-[(4-{3,8-diazabicyclo[3.2.1]octan-3-yl}-7-(8-ethyl-3-hydroxynaphthalen-1-yl)-8-fluoropyrido[4,3-d]pyrimidin-2-yl)oxy]ethyl}piperidin-4-yl)methyl]piperidin-1-yl}acetamido)-3,3-dimethylbutanoyl]-4-hydroxy-N-[(1S)-1-[4-(4-methyl-1,3-thiazol-5-yl)phenyl]ethyl]pyrrolidine-2-carboxamide] | 60 to 80 | < 600
